Active and inactive are the calls of the source. The rule behind the calls is not given here.
How the values were obtained:
Staphylococcus aureus [1] = assay: Antibacterial activity against methicillin-resistant Staphylococcus aureus 18858 assessed as bacterial growth inhibition incubated for 24 hrs by CLSI based micro-broth dilution assay; assay type: functional
Staphylococcus aureus [2] = assay: Antibacterial activity against methicillin-resistant Staphylococcus aureus 18908 assessed as bacterial growth inhibition incubated for 24 hrs by CLSI based micro-broth dilution assay; assay type: functional
Staphylococcus aureus [3] = assay: Antibacterial activity against Staphylococcus aureus 8325.4 assessed as bacterial growth inhibition incubated for 24 hrs by CLSI based micro-broth dilution assay; assay type: functional
[4] = Stability in methicillin-resistant Staphylococcus aureus supernatants measured for 24 hrs by RP-HPLC analysis; assay type: physicochemical
Cell membrane = assay: Disruption of membrane integrity in methicillin-resistant Staphylococcus aureus assessed as increase in fluorescence intensity measured for 120 mins by confocal microscopic analysis; assay type: cell membranes
Staphylococcus aureus [5] = assay: Antibacterial activity against Staphylococcus aureus 25923 assessed as bacterial growth inhibition incubated for 24 hrs by CLSI based micro-broth dilution assay; assay type: functional
Staphylococcus aureus [6] = assay: Drug resistance, ratio of MIC for methicillin-resistant Staphylococcus aureus after 1 week exposure to MIC for methicillin-resistant Staphylococcus aureus during first exposure; assay type: functional; details: time 1 weeks
[7] = Stability in mouse blood plasma measured for 12 hrs by RP-HPLC analysis; assay type: ADME, cell-free; details: read-out: Stability
Staphylococcus aureus [8] = assay: Antibacterial activity against methicillin-resistant Staphylococcus aureus 19423 assessed as bacterial growth inhibition incubated for 24 hrs by CLSI based micro-broth dilution assay; assay type: functional
Erythrocyte = assay: (§1) Hemolytic activity in mouse RBC assessed as hemolysis incubated for 1 hrs by spectrophotometric analysis; assay type: toxicity, cell-based; details: erythrocyte, 1 h
[9] = as §1; assay type: toxicity, cell-based, Erythrocyte; details: mouse red blood cells (erythrocytes)
[10] = biological target: T1, Monofunctional C1-tetrahydrofolate synthase, mitochondrial (Homo sapiens) (UniProt Q6UB35); assay: Inhibition of FTHFS (unknown origin) expressed in Escherichia coli BL21 (DE3) incubated for 10 mins by UV-spectrophotometer analysis
T1 sequence (whole entry): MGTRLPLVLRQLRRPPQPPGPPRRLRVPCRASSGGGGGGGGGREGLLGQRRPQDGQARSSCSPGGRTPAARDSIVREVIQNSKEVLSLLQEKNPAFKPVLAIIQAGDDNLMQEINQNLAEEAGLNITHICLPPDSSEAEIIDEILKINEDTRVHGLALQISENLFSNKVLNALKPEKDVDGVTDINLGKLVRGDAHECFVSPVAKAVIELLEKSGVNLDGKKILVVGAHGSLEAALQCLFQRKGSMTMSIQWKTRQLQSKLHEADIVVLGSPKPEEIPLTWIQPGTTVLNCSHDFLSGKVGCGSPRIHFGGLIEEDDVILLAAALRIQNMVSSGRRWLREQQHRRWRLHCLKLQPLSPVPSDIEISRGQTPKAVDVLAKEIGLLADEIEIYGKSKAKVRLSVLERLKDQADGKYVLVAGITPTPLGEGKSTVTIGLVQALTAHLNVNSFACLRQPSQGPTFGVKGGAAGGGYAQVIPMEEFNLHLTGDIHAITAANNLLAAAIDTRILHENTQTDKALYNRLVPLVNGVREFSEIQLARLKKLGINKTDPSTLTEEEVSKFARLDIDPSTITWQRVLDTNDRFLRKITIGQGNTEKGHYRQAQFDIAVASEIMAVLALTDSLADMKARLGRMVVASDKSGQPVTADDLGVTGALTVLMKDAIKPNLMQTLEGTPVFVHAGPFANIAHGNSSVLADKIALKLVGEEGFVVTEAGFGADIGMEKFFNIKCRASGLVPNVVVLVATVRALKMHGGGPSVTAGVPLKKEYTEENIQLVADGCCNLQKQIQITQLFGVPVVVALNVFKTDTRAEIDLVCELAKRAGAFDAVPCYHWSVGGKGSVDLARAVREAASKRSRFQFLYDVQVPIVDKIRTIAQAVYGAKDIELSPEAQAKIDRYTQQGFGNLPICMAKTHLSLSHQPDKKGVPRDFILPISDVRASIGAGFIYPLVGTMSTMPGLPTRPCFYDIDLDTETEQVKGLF

Staphylococcus aureus [11] = assay: Antibacterial activity against methicillin-resistant Staphylococcus aureus 19167 assessed as bacterial growth inhibition incubated for 24 hrs by CLSI based micro-broth dilution assay; assay type: functional
Staphylococcus aureus [12] = assay: Antibacterial activity against methicillin-resistant Staphylococcus aureus 18878 assessed as bacterial growth inhibition incubated for 24 hrs by CLSI based micro-broth dilution assay; assay type: functional
Staphylococcus aureus [13] = assay: Antibacterial activity against methicillin-resistant Staphylococcus aureus 18466 assessed as bacterial growth inhibition incubated for 24 hrs by CLSI based micro-broth dilution assay; assay type: functional
Pseudomonas aeruginosa = assay: Antibacterial activity against Pseudomonas aeruginosa assessed as bacterial growth inhibition incubated for 24 hrs by CLSI based micro-broth dilution assay; assay type: functional
Staphylococcus aureus [14] = assay: Antibacterial activity against Methicillin-resistant Staphylococcus aureus infected in ICR mouse skin infection model assessed as log reduction in bacterial count at 40 mg/kg, sc measured upto 10 days; assay type: functional; details: time <= 10 day
Candida albicans = assay: Antifungal activity against Candida albicans assessed as inhibition of fungal growth; assay type: functional
Staphylococcus aureus [15] = assay: Antibacterial activity against methicillin-resistant Staphylococcus aureus assessed as fold reduction in viable bacteria at 1 to 8 times MIC measured at 3 hr by time-kill assay; assay type: functional
Escherichia coli = assay: Antibacterial activity against Escherichia coli assessed as bacterial growth inhibition incubated for 24 hrs by CLSI based micro-broth dilution assay; assay type: functional
Staphylococcus aureus [16] = assay: Drug resistance, ratio of MIC for methicillin-resistant Staphylococcus aureus after 3 days exposure to MIC for methicillin-resistant Staphylococcus aureus during first exposure; assay type: functional; details: time 3 day
[17] = Stability in mouse blood plasma measured for 24 hrs by RP-HPLC analysis; assay type: ADME, cell-free
[18] = Antiproliferative activity against HEK293T cells assessed as reduction in cell viability measured for 48 hrs by MTT assay; assay type: toxicity, cell-based, HEK-293T; details: human
Staphylococcus aureus [19] = assay: Antibacterial activity against methicillin-resistant Staphylococcus aureus 18567 assessed as bacterial growth inhibition incubated for 24 hrs by CLSI based micro-broth dilution assay; assay type: functional
Staphylococcus aureus [20] = assay: Antibacterial activity against Staphylococcus aureus 29213 assessed as bacterial growth inhibition incubated for 24 hrs by CLSI based micro-broth dilution assay; assay type: functional
Staphylococcus aureus [21] = assay: Antibacterial activity against Methicillin-resistant Staphylococcus aureus infected in ICR mouse skin infection model assessed as reduction in bacterial content at 40 mg/kg, sc measured upto 10 days; assay type: functional, organism-based; details: time <= 10.0 day
Staphylococcus aureus [22] = assay: Antibacterial activity against Staphylococcus aureus assessed as reduction in bacterial growth in presence of PABA; assay type: functional, organism-based
Staphylococcus aureus [23] = assay: Drug resistance, ratio of MIC for methicillin-resistant Staphylococcus aureus after 7 days exposure to MIC for methicillin-resistant Staphylococcus aureus during first exposure; assay type: functional; details: time 7 day
Porphyromonas gingivalis = assay: Antibacterial activity against Porphyromonas gingivalis assessed as bacterial growth inhibition incubated for 24 hrs by CLSI based micro-broth dilution assay; assay type: functional
[24] = biological target: T2, Monofunctional C1-tetrahydrofolate synthase, mitochondrial (Homo sapiens, UniProt Q6UB35); assay: Binding affinity to FTHFS (unknown origin) expressed in Escherichia coli BL21 (DE3) using IPTG as […] assessed as dissociation constant by MST assay
T2 sequence (Q6UB35 whole entry): T1 sequence (whole entry)

[25] = Hemolytic activity in mouse RBC assessed as hemolysis at 320 uM incubated for 1 hrs by spectrophotometric analysis relative to control; assay type: toxicity, cell-based, Erythrocyte; details: mouse red blood cells (erythrocytes), read-out: %max

Substance | MIC (Staphylococcus aureus [1]) | MIC (Staphylococcus aureus [2]) | MIC (Staphylococcus aureus [3]) | Stability [4] | Activity (Cell membrane) | MIC (Staphylococcus aureus [5]) | Ratio (Staphylococcus aureus [6]) | remaining at 12 h [7] | MIC (Staphylococcus aureus [8]) | HC10 (Erythrocyte) | HC50 at 1 h [9] | inhibition [10] | MIC (Staphylococcus aureus [11]) | MIC (Staphylococcus aureus [12]) | MIC (Staphylococcus aureus [13]) | MIC (Pseudomonas aeruginosa) | log(activity) (Staphylococcus aureus [14]) | MIC (Candida albicans) | fold change (FC) (Staphylococcus aureus [15]) | MIC (Escherichia coli) | other results
H-LARVARRVIRFIRRAW-NH2 | 3 µM | 3 µM | 3 µM | Stable | Active | 3 µM | 4 | 20% | 6 µM | > 320 µM | > 320 µM | Active | 6 µM | 6 µM | 6 µM | > 48 µM | 5.9 | 3 µM | ~300 | > 48 µM | Ratio (Staphylococcus aureus [16]): 50; Stability [17]: Unstable; IC50 at 48 h [18]: > 320 µM; MIC (Staphylococcus aureus [19]): 3 µM; MIC (Staphylococcus aureus [20]): 3 µM; Activity (Staphylococcus aureus [21]): Active; Activity (Staphylococcus aureus [22]): Active; Ratio (Staphylococcus aureus [23]): 100; MIC (Porphyromonas gingivalis): 12 µM; Kd [24]: 2.24 µM; hemolysis at 1 h, 320 µM [25]: 8.58%
H-RRRLARRLIFFIRRAW-NH2 | 3 µM | 3 µM | 3 µM | Stable | Active | 3 µM | 8 | 20% | 6 µM | > 320 µM | > 320 µM | Active | 6 µM | 6 µM | 6 µM | > 48 µM | 5.8 | 3 µM | ~300 | > 48 µM | Ratio (Staphylococcus aureus [16]): 50; Stability [17]: Unstable; IC50 at 48 h [18]: > 320 µM; MIC (Staphylococcus aureus [19]): 6 µM; MIC (Staphylococcus aureus [20]): 3 µM; Activity (Staphylococcus aureus [21]): Active; Activity (Staphylococcus aureus [22]): Active; Ratio (Staphylococcus aureus [23]): 100; MIC (Porphyromonas gingivalis): 12 µM; Kd [24]: 3.68 µM; hemolysis at 1 h, 320 µM [25]: 8.97%
